Patent US6416738B1, “Pretargeting methods and compounds” (NeoRx Corporation, priority 1973, dated 2002)
Ends that are not written are not given here.

Columns and labels:
[1] = Time dependent cleavage of DOTA-biotin conjugates in serum (% avidin binding); type: in vitro ADME
Text: The difference in serum stability between DOTA-LC-biotin and DOTA-SC-biotin might be explained by the fact that the SC derivative contains an aromatic amide linkage in contrast to the aliphatic amide linkage of the LC derivative, with the aliphatic amide linkage being more readily recognized by enzymes as a substrate therefor. This argument cannot apply to biotinidase, however, because biotinidase very efficiently cleaves aromatic amides. In fact, it is recognized that the simplest and most commonly employed biotinidase activity measuring method uses N-(d-biotinyl)-4-aminobenzoate (BPABA) as a substrate, with the hydrolysis of BPABA resulting in the liberation of biotin and 4-aminobenzoate (PABA). See, for example, B. Wolf, et al., “Methods in Enzymology,” pp. 103-111, Academic Press Inc., 1990. Consequently, one would predict that DOTA-SC-biotin, like its LC counterpart, would be a biotinidase substrate. […] A series of DOTA-biotin conjugates was therefore synthesized by the present inventors to determine which structural features conferred serum stability to the conjugates.

LS-180 tumor xenografts [2] = experiment: Two-step pretargeting with NR-LU-10-avidin and 131I-PIP-biocytin; type: in vivo, nude mice; details: 200 μg NR-LU-10-avidin at t=0, 42 μg 131I-PIP-biocytin at t=36 h
Method: ^131I-PIP-biocytin was evaluated in a two-step pretargeting procedure in tumor-bearing mice. […] At t=0, the mice were injected with 200 μg of NR-LU-10-avidin conjugate labeled with ^125I using PIP-NHS (see Example IV.A.). At t=36 h, the mice received 42 μg of ^131I-PIP-biocytin. […] The described radiohalogenated biotin compounds are amenable to the same types of modifications described in Example VI above for ^186Re-chelate-biotin conjugates. In particular, the following PIP-polylysine-biotin molecule is made by trace labeling polylysine with ^125I-PIP, followed by extensive biotinylation of the polylysine. [drawing 47]

LS-180 tumor xenografts [3] = experiment: Tumor uptake of PIP-biocytin after NR-LU-10-streptavidin; type: in vivo, nude mice
Method: The following data are based on experimentation with tumored nude mice (100 mg LS-180 tumor xenografts implanted subcutaneously 7 days prior to study) that received, at time 0, 200 μg of I-125 labeled NR-LU-10-Streptavidin conjugate (950 pmol), as discussed in Example XI above. At 24 hours, the mice received an i.v. injection of PIP-I-131-biocytin (40 μCi) and an amount of cold carrier PIP-I-127 biocytin corresponding to doses of 42 μg (69,767 pmol), 21 μg (34,884 pmol), 5.7 μg (9468 pmol), 2.85 μg (4734 pmol) or 0.5 μg (830 pmol).

LS-180 tumor = experiment: Two-step pretargeting in LS-180 animal model
Method: and perform biodistributions at 2, 6, 24, 72, 120 hours after injection of radiolabeled biotinyl molecule

[4] = Excretion of neutral MAMA chelate-biotin conjugate; details: in vivo
Text: Although the net overall charge of the conjugate is neutral, the polycarboxylate nature of the molecule generates regions of hydrophilicity and hydrophobicity. By altering the number and nature of the carboxylate groups within the conjugate, excretion may be shifted from kidney to gastrointestinal routes. For instance, neutral compounds are generally cleared by the kidneys; anionic compounds are generally cleared through the GI system.

[5] = system: LS-180 human colon tumor xenografts; experiment: Three-step pretargeting in LS-180 xenograft model; details: for tumor uptake: antibody at time 0, avidin at 24 h
Text: The experimental protocol was as follows:
The three radiolabels employed in this protocol are capable of detection in the presence of each other. It is also noteworthy that the sizes of the three elements involved are logarithmically different—antibody≅150,000; avidin≅66,000; and biotin≅1,000.

[6] = biological target: T1, Streptavidin-agarose beads (Streptomyces avidinii, UniProt P22629); experiment: Streptavidin-agarose bead binding; details: for Pellet: radioactivity bound to streptavidin-agarose beads; for Supernatant: radioactivity not bound to streptavidin-agarose beads
T1 construct: purchased Sigma S-1638
Method: 100 μl of 0.2 M sodium carbonate buffer, pH 9.2, was added to 2 mg (in 1.00 ml PBS) of PIP-125-labeled orosomucoid and to 2 mg PIP-125-labeled asialoorosomucoid. 60 μl of a 1.85 mg/ml solution of NHS-amino caproate biotin in DMSO was then added to each compound. The reaction mixtures were vortexed and allowed to sit at room temperature for 45 minutes. The material was purified by size exclusion column chromatography (PD-10, Pharmacia) and eluted with PBS. 1.2 ml fractions were taken, with fractions 4 and 5 containing the majority of the applied radioactivity (>95%). Streptavidin-agarose beads (Sigma S-1638) or -pellets were washed with PBS, and 20 μg of each biotinylated, radiolabeled protein was added to 400 μl of beads and 400 μl of PBS, vortexed for 20 seconds and centrifuged at 14,000 rpm for 5 minutes. The supernatant was removed and the pellets were washed with 400 μl PBS. This wash procedure was repeated twice more, and the combined supernatants were assayed by placing them in a dosimeter versus their respective pellets.

[7] = Blood clearance and limited biodistribution of orosomucoid and asialoorosomucoid; details: for blood level: I-125-labeled protein i.v.
Method: The asialoorosomucoid and orosomucoid starting material were radiolabeled with I-125 using PIP technology, as described in Example IV above.
In addition, two animals receiving each compound were sacrificed at 5 minutes post-administration and limited biodistributions were performed.

HA peptide = details: physiological conditions, concentrations as low as 10^−13 M; cited from earlier work

T1 sequence (P22629 25-183): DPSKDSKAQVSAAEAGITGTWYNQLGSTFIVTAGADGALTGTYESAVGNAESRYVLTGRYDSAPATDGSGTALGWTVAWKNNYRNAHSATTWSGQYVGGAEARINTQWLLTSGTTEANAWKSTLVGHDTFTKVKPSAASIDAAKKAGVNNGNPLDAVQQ

## O=C(CCCCC1SCC2NC(=O)NC21)NCCCC[C@H](NC(=O)c1ccc([125I])cc1)C(=O)O (some centres unmarked) [PIP-Biocytin, p-[I-125]iodobenzoylbiocytin]
[1]; 5 Minutes at 37° C.
  % Avidin Binding: 75%
[1]; 15 Minutes at 37° C.
  % Avidin Binding: 57%
[1]; 30 Minutes at 37° C.
  % Avidin Binding: 31%
LS-180 tumor xenografts [2]
  131I-PIP-biocytin molecules per avidin molecule at tumor: ≈ 1.5
LS-180 tumor xenografts [3]; 0.5 μg dose, 120 hour time point (96 hours after PIP-biocytin)
  peak tumor uptake: 85.0 % ID/G
LS-180 tumor xenografts [3]; three highest doses (42, 21, 5.7 μg), 4 hours after PIP-biocytin injection
  tumor localization: about 600 pmol/g
LS-180 tumor; 40 hour time point, PIP-BT at 37 hours following LU-10-StrAv
  tumor uptake: above 500 pMOL/G
LS-180 tumor; 45 hours post-LU-10-StrAv administration
  peak tumor uptake: about 700 pMOL/G

## O=C(O)CN1CCN(CCOO)CCN(CCOO)CCN(CC(=O)O)C(Cc2ccc(NC(=O)CCCCC3SCC4NC(=O)NC43)cc2)C1 (centres unmarked) [Y-90-SC DOTA-Biotin, metal not drawn]
[1]; 20 Hours at 37° C.
  % Avidin Binding: 60%
[1]; 60 Minutes at 37° C.
  % Avidin Binding: 98%
[1]; in comparison to DOTA-LC-biotin
  serum stability: significantly improved serum stability

## CN(CCSCc1ccccc1)CC(CCC(=O)NCCNC(=O)CC1SCC2NC(=O)NC21)NC(=O)CS (centres unmarked) [neutral MAMA chelate-biotin conjugate]
[4]
  kidney excretion: superior kidney excretion

## Avidin: avidin (MW≈66 kD), radiolabeled with 131I/PIP-NHS
[5]; at 25 h
  tumor uptake: about 250 pmol/g
[5]; at 32 h
  tumor uptake: ~150 pmol/g
[5]; at 48 h
  tumor uptake: ~50 pmol/g
[5]; at 120 h
  tumor uptake: ~0 pmol/g
[5]; mouse, in vivo
  injected dose cleared from the blood: greater than 90%

## asialoorosomucoid: orosomucoid treated with neuraminidase
[6]
  Pellet: 8.0%
  Supernatant: 92%
[7]; 5 minutes post-administration
  uptake in the liver: 86%
  blood level: 0.4%
[7]; 5 minutes to 4 hours post-administration
  blood clearance: clearing more rapidly than its orosomucoid counterpart

## orosomucoid: human alpha-1 acid glycoprotein [reference compound]
[6]
  Pellet: 10%
  Supernatant: 90%
[7]; 5 minutes post-administration
  blood level: 78%

## pGlu-Pto-Pro-Gly-Gly-Ser-Lys-Val-Ile-Leu-Phe (PGGSKVILF; not fully specified (N-terminus); printed as pGlu-Pto-Pro-Gly-Gly-Ser-Lys-Val-Ile-Leu-Phe) [HA peptide]
HA peptide
  dissociation of HA dimer into monomers: does not dissociate into monomers
